Measurements: patent EP0182271A2, “Nb-quaternary dibromo derivatives of ajmaline, isoajmaline, sandwicine and isosandwicine, pharmaceutical compositions containing them, intermediates and process for their preparation” (priority 1984, dated 1986)
Where two headings read alike, the source gives them in different places.

Assays:
[1] = Acute 7-day toxicity in mice after a single p.o. dose; design: species or system Maus; details: in vivo, po, mouse (male NMRI), 50 % mortality on day 7, probit analysis, read-out: Toxizität LD50
Description: (§1) Beschreibung der pharmakologischen Versuchsmethoden: • 1. Bestimmung der akuten 7-Tage-Toxizität in Mausen. Die akute Toxizität der Wirkstoffe wird in männlichen NMRI-Mäusen (Körpergewicht 18-22 g) nach einmaliger p.o.-Applikation bestimmt. Die LD50 wird als die Dosis in uMol/kg definiert, welcher eine 50 % Mortalität der Tiere am 7. Tag nach der Applikation entspricht. Die LD50-Werte werden durch eine Probit-Analyse errechnet. • 2. Bestimmung der Hemmwirkung der Substanzen auf durch Aconitin-Infusion induzierte Herzrhythmusstörungen in Ratten.

[2] = tested on: durch Aconitin-Infusion induzierte Herzrhythmusstörungen; assay: Inhibition of aconitine-infusion-induced cardiac arrhythmias in rats (method of Raschak); assay type: in vivo, Ratte; details: Rattus norvegicus, po, 3 h
Description: as §1
Die Hemmwirkung auf durch Aconitin-Infusion in Ratten verursachte Herzrhythmusstörungcn (Extrasystolen (ES), ventrikuläre Tachykardie (VT) und Kammerflattern (KF)) werden nach der Methode von Raschak (Arzneimittelforsch. 25 (1975), 639-641) bestimmt.
Männliche Ratten mit einem Körpergewicht von 320-400 g werden durch i.p. Applikation von 1,25 g/kg Urethan narkotisiert. Die Tiere werden auf den Rücken gelegt und ihr Elektrokardiogramm wird während des Versuches alle 30 Sekunden gemessen. Den Tieren wird eine i.v. Aconitin-Infusion mit einer Infusionsgeschwindigkeit von 5 µg/kg/min Aconitin und einem Infusionsvolumen von 0,1 ml/min verabreicht. Drei Stunden vor Beginn der Aconitin-Infusion werden den Tieren die Testsubstanzen p.o. in einer Menge von 2 ml/kg Körpergewicht 2%-iger Tylose-Lösung verabreicht. Einer Kontrollgruppe wird nur die Tylose-Lösung verabreicht. Die Infusionsdauer bis zum Auftreten der verschiedenen Herzrhythmusstörungen wird bestimmt.
Antiarrhythmisch wirksame Testverbindungen führen zu einer Verzögerung des Auftretens der Aconitin-induzierten Herzrhythmusstörungen in den behandelten Tieren im Vergleich zu den Kontrolltieren. Aus dem Ausmaß der Verlängerung der Aconitininfusionsdauer und somit der Erhöhung der verabreichten Aconitinmenge, bis zu welcher die Tiere gegen die durch Aconitin induzierten Herzrhythmusstörungen geschützt sind, läßt sich auf die Stärke der antiarrhythmischen Wirksamkeit der Testsubstanzen schließen. Als ED150 wird die Dosis der Testsubstanzen bestimmt, bei welcher die jeweiligen Herzrhythmusstörungen erst nach der Verlängerung der Aconitinfusionsdauer auf 150 % auftreten.

[3] = tested on: ADP-induzierter Plättchenaggregation in PRP-K; assay: Inhibition of ADP-induced platelet aggregation in platelet-rich rabbit plasma (PRP/K), method of Born; assay type: cell-based, Kaninchen; details: Oryctolagus cuniculus, 10-6 Mol/l ADP, read-out: % Hemmwirkung gegenüber ADP-induzierter Plättchenaggregation in PRP-K
Description: 3. Bestimmung der Hemmwirkung auf durch ADP induzierte Blutplättchenaggregation im blutplättchenreichen Kaninchenblutplasma (PRP/K).
Die in-vitro-Bestimmung der antiaggregatorischen Wirkungen der Substanzen wurde nach der Methode von Born (Nature 194, 927 (1962)), modifiziert für Mikrobestimmungen nach Sim et al (Thromb. Res. 1, 655 (1975)) durchgeführt.
PRP/K wird durch Zentrifugieren von mit Antikoagulanz versetztem Kaninchenblut auf bekannte Weise erhalten. Als Kontrollwerte für die photometrische Bestimmung der Aggregationshemmung werden die optische Dichte des unbehandelten PRP/K (^ß0 % Aggregation) und von PRP/K, in welchem Blutplättchenaggregation durch Behandlung von 10-^6 Mol/1 ? ADP erzeugt wurde (100 % Aggregation), gemessen.
Zur Bestimmung der aggregationshemmmenden Wirkungen der Wirkstoffe werden Proben PRP/K mit einer bestimmten Wirkstoffdosis versetzt und dann mit 10-^6 Mol/1 ADP behandelt. Die Verringerung der optischen Dichte gegenüber der des unbehandelten PRP/K wird gemessen und mit der bei der Behandlung von wirkstoffreiem PRP/K mit 10-^6 Mol/l ADP aufgetretenen optischen Dichteverringerung verglichen. Hieraus wird die durch die eingesetzte Wirkstoffdosis entfaltete Hemmwirkung in % Hemmung der in wirkstoffreiem PRP/K verursachten Aggregation berechnet. Die in diesem Test mit Wirkstoffen der Formel I erhaltenen Ergebnisse werden in der nachstehenden Tabelle II wiedergegeben. Die folgenden Tabellen I und II geben nach den vorstehend beschriebenen Testmethoden erhaltene Ergebnisse wieder. Die für die Verbindungen der Formel I angegebenen Beispielsnummern beziehen sich auf die nachstehenden Herstellungsbeispiele.

[4] = read-out: Hemmwirkung gegenüber aconotininduzierten Herzrhythmusstörungen ED150 ES
[5] = read-out: Hemmwirkung gegenüber aconotininduzierten Herzrhythmusstörungen ED150 KF
[6] = read-out: Hemmwirkung gegenüber aconotininduzierten Herzrhythmusstörungen ED150 VT

Row | SMILES | LD50 at 168 h [1] [µmol/kg] | ED150 [2, 4] [µmol/kg] | ED150 [2, 5] [µmol/kg] | ED150 [2, 6] [µmol/kg] | inhibition at 100 µg/mL [3] [%] | inhibition at 50 µg/mL ([3]; dose 50 µg/ml) [%]
1 | CCC1C2CC3C4N(C)c5c(Br)cc(Br)cc5C45CC(C2C5O)[N+]3(CCC(C)C)C1O (stereo not shown) [Beispiel 2, Nb-(3-Methylbutyl)-10,12-dibromajmalinium-chlorid] | 277 | 9 | 11 | 6 |  | 
2 | CCC1C2CC3C4N(C)c5c(Br)cc(Br)cc5C45CC(C2C5O)[N+]3(CCCN2CCOCC2)C1O (stereo not shown) [Beispiel 8, Nb-(3-Morpholinopropyl)-10,12-dibromisoajmalinium-chlorid] |  |  |  |  | 100 | 
3 | CCC1C2CC3C4N(C)c5c(Br)cc(Br)cc5C45CC(C2C5O)[N+]3(C)C1O (stereo not shown) [Beispiel 12, Nb-Methyl-10,12-dibromisosandwicinium-hydrogenfumarat] | 2400 | 49 | 58 | 64 | 83 | 
4 | CCC1C2CC3C4N(C)c5c(Br)cc(Br)cc5C45CC(C2C5O)[N+]3(C)C1O (stereo not shown) [Beispiel 16] |  |  |  |  |  | 81
5 | CCC1C2CC3C4N(C)c5c(Br)cc(Br)cc5C45CC(C2C5O)[N+]3(CCN2CCOCC2)C1O (stereo not shown) [Beispiel 62] | 379 | 11 | 13 | 11 | 100 | 
